What all share (assay type): cell-based, human
Experiment [1] has as its system MNRR1. Description: MNRR1 protein levels in MELAS cybrid cells (immunoblot). The following applies: 10 μM; for MNRR1 protein levels: DW7 cells, 24 h. The procedure: FIGS. 6A-6C: FIG. 6A: Above, Chemical structures of nitazoxanide, its metabolites, and similar compounds. Abbreviations: P4, Phenyl-4-aminosalicylic acid; 4ABA, 4-Aminobenzanilide; 4ASA, 4-Amino salicylic acid; BA, Benzanilide; PBO, Phenyl benzoate; PSA, Phenyl salicylic acid; 2AN, 2-Amino 5-nitrothiazole. Below, Equal amounts of lysates of MELAS cells treated with Vehicle (DMSO) or the various compounds (10 μM) for 24 h were separated on an SDS-PAGE gel and probed for MNRR1 levels. Actin was probed as a loading control and numbers below represent an average and SD of 3 biological replicates. FIGS. 6B-6C: MNRR1 transcript levels are shown relative to 18S rRNA (n=4 biological replicates, error bars represent SE). In all figures, * indicates p<0.05, ** indicates p<0.005.
FIGS. 11A-11F: RBPJk and HIF2α compete for binding at the ORE in the MNRR1 promoter to regulate transcription. FIG. 11A: Chromatin immunoprecipitation-qPCR assessing binding of HIF2α to the endogenous MNRR1 promoter in MELAS cybrid cells with 0% (CL9) and 70% heteroplasmy (DW7). FIG. 11B: Dual luciferase reporter assay showing relative activation of MNRR1-luciferase levels in MELAS cybrid cells overexpressing varying proportions of constitutively active RBPJk (RBP-CA) and HIF2α. FIG. 11C: Dual luciferase reporter assay showing relative activation of MNRR1-luciferase levels in MELAS cybrid cells overexpressing the WT (FIG. 9A) or ΔORE (positions 47-53 in SEQ ID NO: 25 in FIG. 9C) promoter with EV (dotted line) or HIF2α. FIG. 11D: Equal amounts of Control or HIFα knockdown (KD) MELAS cybrid cell lysates were separated on an SDS-PAGE gel and probed for HIF2α and MNRR1 levels. Tubulin was probed as loading control. FIG. 11E: Oxygen consumption measured from Control or HIFα knockdown (KD) MELAS cybrid cells. (n=4 biological replicates, error bars represent SE). FIG. 11F: Left, Oxygen consumption measured from MELAS cybrid cells treated with vehicle (DMSO) or PT2385 (10 μM), an inhibitor of HIF2α function, for 24 h. Right, Equal amounts of MELAS cybrid cell lysates treated with vehicle (DMSO) or PT2385 (10 μM) for 24 h, separated on an SDS-PAGE gel, and probed for MNRR1 levels. GAPDH was probed as a loading control.
Immunoblotting: Immunoblotting was performed as described previously. Cell lysates for immunoblotting were prepared using RIPA buffer (Abcam, Waltham, MA) and included a protease and phosphatase inhibitor cocktail (Sigma, St. Louis, MO). […] The clear supernatants were transferred to new tubes and quantified using the Bradford reagent with BSA as standard (BioRad, Hercules. CA). […] For detection after immunoblotting, the SuperSignal™ West Pico PLUS substrate (ThermoFisher, Waltham, MA) was used to generate chemiluminescence signal, which was detected with X-Ray film (RadTech, Vassar, MI).

The subject of experiment [2] is HIF2α. Briefly: HIF2α protein levels in MELAS cybrid cells (immunoblot). How it is done: FIGS. 10A-10E: The reduction of MNRR1 in MELAS cells is via HIF2α acting at the ORE and not the HRE. FIG. 10A: Above, Equal amounts of MELAS cell lysates, treated with vehicle (DMSO) or increasing amounts of tizoxanide (2.5 to 40 μM) for 24 h, were separated on an SDS-PAGE gel and probed for HIF2α, MNRR1, and Tubulin. Below, Protein quantification for MNRR1 and HIF2α relative to Tubulin. FIG. 10B: Dual luciferase reporter assay showing relative activation of MNRR1-luciferase in MELAS cybrid cells overexpressing WT (FIG. 9A), Δ 801-952 (FIG. 9A), ΔORE (positions 47-53 of SEQ ID NO: 25 in FIG. 9C) or ΔHRE (positions 59-66 of SEQ ID NO: 25 in FIG. 9C). FIG. 10C: Dual luciferase reporter assay showing relative activation of HRE-luciferase levels in cybrid cells with 0% (CL9) and 70% MELAS heteroplasmy (DW7). […]
Immunoblotting: Immunoblotting was performed as described previously. […] The clear supernatants were transferred to new tubes and quantified using the Bradford reagent with BSA as standard (BioRad, Hercules. CA). […] For detection after immunoblotting, the SuperSignal™ West Pico PLUS substrate (ThermoFisher, Waltham, MA) was used to generate chemiluminescence signal, which was detected with X-Ray film (RadTech, Vassar, MI).
For orientation: A western blot detects proteins with antibodies after separation by electrophoresis.

The test system of experiment [3] is MNRR1 promoter. Briefly: Dual luciferase reporter assay with MNRR1 promoter deletions in MELAS cybrid cells. The following applies: 10 μM, 24 h. The procedure:
FIGS. 9A-9E: Nitazoxanide acts by reducing HIF2α levels in MELAS cells. FIG. 9A: Schematic representation of deleted regions of the MNRR1 promoter. FIG. 9B: Dual luciferase reporter assay using the MNRR1 promoter deletions in cells treated with vehicle (DMSO), nitazoxanide, or tizoxanide (10 μM) for 24 h (n=4 biological replicates). FIG. 9C: DNA sequence of region of 800-952 bp in the MNRR1 promoter (SEQ ID NO: 25) highlighting binding sites of the transcription factors shown. FIG. 9D: Transcript levels of HIF2α and HIF1α in MELAS cybrid cells harboring different levels of heteroplasmy (0% to 100%). Data from. FIG. 9E: Protein levels of HIF2α and HIF1α in cybrid cells with 0% (CL9) and 70% MELAS heteroplasmy (DW7) In all figures, * indicates p<0.05, ** indicates p<0.005.
Luciferase reporter assay: Luciferase assays were performed with the dual-luciferase reporter assay kit (Promega). Briefly, cells were lysed in 1× passive lysis buffer (Promega) and 25 μL of lysate was used for assay with a tube luminometer using an integration time of 10 s. Transfection efficiency was normalized with the co-transfected pRL-SV40 Renilla luciferase expression plasmid.
(In general: Reporter assays use an easily measured gene product as a stand-in for the process of interest.)

This note sets out measurements from US20250241901A1, “ACTIVATION OF MNRR1 / CHCHD2 AS A THERAPEUTIC TARGET FOR MITOCHONDRIA ASSOCIATED DISORDERS” (Wayne State University, priority 2024, published 2025).

Each structure is given as a SMILES string.

In the case of `CC(=O)Oc1ccccc1C(=O)Nc1ncc([N+](=O)[O-])s1` [nitazoxanide, Nitazoxanide], the MNRR1 protein levels result in experiment [1] is given as “significant increase”. In experiment [2] (MELAS cells), the “levels of HIF2α” value was “reduces”. Besides, the “activation of MNRR1 promoter with deletion of the 801-952 region” value in experiment [3] is listed as “failed to display activation”.
As for `O=C(Nc1ncc([N+](=O)[O-])s1)c1ccccc1O` [tizoxanide, Tizoxanide], in experiment [1], the MNRR1 protein levels result is reported as “significant increase”. In addition, the MNRR1 levels result in experiment [1] (MELAS cybrid cells, 48 h) is on record as “increases MNRR1 levels”. Besides, the “HIF2α protein levels relative to MNRR1” value in experiment [2] (MELAS cybrid cells, 2.5 to 40 μM, 24 h) was “inversely proportional in a concentration dependent manner to MNRR1”. Also, the “activation of MNRR1 promoter with deletion of the 801-952 region” value in experiment [3] is on record as “failed to display activation”.
